Data from US20070282007A1, “TREATMENT OF PAIN DISORDERS WITH trans 4-(3,4-DICHLOROPHENYL)-1,2,3,4-TETRAHYDRO-1-NAPHTHALENAMINE AND ITS FORMAMIDE” (SEPRACOR INC., priority 2006, published 2007).
pIC50, pKi: −log10 of the molar value.

Columns and labels:
M5 = target: T1, M5 (Homo sapiens, UniProt P08912); assay: In vitro radioligand binding assay, M5; settings: read-out: Ki, M5
T1 sequence (P08912 1-532): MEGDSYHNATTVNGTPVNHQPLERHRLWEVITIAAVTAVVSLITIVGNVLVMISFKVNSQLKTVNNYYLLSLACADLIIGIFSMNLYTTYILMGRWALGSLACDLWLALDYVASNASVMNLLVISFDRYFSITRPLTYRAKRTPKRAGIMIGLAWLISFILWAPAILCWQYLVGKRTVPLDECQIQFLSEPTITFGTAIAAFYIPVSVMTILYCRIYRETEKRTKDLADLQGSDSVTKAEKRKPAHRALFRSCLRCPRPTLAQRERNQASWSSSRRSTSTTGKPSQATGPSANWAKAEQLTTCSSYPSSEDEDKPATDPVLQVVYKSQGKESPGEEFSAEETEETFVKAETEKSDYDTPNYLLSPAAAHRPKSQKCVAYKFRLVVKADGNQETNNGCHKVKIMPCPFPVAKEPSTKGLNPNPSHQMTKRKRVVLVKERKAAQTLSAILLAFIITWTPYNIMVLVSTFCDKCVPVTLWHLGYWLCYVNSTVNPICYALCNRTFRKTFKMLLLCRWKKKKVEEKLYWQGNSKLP

hERG channel = hERG channel (Homo sapiens, UniProt Q12809); assay: hERG channel current in stably transfected HEK293 cells
Sequence of hERG channel (Q12809 whole entry): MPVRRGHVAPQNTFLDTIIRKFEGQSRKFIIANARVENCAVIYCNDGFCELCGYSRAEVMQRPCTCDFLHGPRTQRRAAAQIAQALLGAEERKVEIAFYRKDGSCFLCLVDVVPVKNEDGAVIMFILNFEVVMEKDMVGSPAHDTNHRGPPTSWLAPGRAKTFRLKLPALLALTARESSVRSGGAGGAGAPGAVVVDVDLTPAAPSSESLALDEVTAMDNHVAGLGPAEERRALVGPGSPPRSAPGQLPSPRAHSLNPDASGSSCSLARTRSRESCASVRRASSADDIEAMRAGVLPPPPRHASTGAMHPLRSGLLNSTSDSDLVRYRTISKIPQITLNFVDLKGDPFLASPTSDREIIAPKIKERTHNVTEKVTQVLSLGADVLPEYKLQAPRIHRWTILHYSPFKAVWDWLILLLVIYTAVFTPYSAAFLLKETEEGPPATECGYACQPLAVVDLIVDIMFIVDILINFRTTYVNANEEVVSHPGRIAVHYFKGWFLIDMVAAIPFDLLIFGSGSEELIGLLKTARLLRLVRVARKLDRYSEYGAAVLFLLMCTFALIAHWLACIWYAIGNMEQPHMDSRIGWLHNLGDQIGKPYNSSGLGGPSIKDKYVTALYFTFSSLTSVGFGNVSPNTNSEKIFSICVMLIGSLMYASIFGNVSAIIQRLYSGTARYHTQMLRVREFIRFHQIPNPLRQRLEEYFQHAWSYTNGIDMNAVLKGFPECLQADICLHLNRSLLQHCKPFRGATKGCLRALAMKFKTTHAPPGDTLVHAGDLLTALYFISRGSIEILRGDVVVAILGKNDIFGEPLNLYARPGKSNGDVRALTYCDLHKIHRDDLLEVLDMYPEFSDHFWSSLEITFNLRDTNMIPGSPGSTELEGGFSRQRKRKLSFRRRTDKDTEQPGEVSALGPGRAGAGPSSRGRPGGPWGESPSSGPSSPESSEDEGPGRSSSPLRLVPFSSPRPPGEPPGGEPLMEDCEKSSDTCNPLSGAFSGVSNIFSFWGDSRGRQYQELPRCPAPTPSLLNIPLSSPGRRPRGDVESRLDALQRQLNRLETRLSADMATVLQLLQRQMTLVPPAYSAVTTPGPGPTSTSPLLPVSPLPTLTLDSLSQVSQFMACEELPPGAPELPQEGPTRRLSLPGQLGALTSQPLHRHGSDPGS
Protocol: Studies were conducted to determine effects on IKr, the rapidly activating delayed rectifier cardiac potassium current in the human heart. […] In this assay system, HERG channel current serves as a surrogate for IKr.

M2 = M2 (Homo sapiens, UniProt P08172); assay: In vitro radioligand binding assay, M2
Sequence of M2 (P08172 whole entry): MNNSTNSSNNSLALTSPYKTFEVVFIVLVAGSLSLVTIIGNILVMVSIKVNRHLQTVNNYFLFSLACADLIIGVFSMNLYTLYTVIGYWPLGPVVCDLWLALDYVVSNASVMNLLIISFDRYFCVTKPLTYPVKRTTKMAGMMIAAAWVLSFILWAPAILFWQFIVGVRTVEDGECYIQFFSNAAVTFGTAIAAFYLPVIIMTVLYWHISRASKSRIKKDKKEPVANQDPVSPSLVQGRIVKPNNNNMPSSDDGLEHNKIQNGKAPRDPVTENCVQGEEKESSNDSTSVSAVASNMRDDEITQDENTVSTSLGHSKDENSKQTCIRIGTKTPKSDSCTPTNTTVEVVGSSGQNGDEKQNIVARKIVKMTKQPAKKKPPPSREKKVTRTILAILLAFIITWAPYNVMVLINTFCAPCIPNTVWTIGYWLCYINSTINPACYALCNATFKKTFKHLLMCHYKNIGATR

5-HT1B = 5-HT1B (Homo sapiens, UniProt P28222); assay: In vitro radioligand binding assay, 5-HT1B
Sequence of 5-HT1B (P28222 whole entry, species assumed): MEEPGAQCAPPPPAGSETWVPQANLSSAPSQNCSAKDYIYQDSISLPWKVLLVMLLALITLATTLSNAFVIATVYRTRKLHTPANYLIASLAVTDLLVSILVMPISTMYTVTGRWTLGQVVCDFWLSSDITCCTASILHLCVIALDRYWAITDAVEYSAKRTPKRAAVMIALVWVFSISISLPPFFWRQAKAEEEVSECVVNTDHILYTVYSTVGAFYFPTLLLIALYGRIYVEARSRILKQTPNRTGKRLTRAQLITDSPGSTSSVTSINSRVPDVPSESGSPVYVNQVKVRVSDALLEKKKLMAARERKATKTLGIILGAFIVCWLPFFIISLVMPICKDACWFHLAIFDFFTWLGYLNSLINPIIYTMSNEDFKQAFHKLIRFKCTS

5-HT2C = 5-HT2C (Homo sapiens, UniProt P28335); assay: In vitro radioligand binding assay, 5-HT2C
Sequence of 5-HT2C (P28335 33-458, species assumed): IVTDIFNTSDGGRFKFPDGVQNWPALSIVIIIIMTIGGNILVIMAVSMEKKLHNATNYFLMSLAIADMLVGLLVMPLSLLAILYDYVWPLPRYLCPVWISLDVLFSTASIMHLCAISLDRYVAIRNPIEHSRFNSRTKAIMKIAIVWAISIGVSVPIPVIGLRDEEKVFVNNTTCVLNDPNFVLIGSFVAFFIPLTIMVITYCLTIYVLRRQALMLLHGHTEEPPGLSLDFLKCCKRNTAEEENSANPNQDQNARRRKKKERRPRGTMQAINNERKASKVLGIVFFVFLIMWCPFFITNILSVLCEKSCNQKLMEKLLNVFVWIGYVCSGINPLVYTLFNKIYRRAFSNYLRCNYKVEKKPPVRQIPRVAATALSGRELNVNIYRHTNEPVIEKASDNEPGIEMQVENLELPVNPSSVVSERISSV

5-HT1A = target: T2, 5-HT1A (Homo sapiens, UniProt P08908); assay: In vitro radioligand binding assay, 5-HT1A
T2 sequence (P08908 1-422): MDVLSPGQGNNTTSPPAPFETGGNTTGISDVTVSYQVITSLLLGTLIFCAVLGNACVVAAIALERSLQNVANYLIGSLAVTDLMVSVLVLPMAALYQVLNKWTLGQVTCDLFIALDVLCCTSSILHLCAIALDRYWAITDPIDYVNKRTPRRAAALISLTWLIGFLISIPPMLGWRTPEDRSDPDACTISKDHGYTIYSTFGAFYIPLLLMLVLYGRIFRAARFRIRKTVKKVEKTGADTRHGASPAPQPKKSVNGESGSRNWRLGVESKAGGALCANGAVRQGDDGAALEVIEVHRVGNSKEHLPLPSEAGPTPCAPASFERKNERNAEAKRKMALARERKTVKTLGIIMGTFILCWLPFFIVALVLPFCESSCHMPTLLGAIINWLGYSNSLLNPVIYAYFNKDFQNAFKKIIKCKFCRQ

D1 = D1 (Homo sapiens, UniProt P21728); assay: In vitro radioligand binding assay, D1
Sequence of D1 (P21728 whole entry): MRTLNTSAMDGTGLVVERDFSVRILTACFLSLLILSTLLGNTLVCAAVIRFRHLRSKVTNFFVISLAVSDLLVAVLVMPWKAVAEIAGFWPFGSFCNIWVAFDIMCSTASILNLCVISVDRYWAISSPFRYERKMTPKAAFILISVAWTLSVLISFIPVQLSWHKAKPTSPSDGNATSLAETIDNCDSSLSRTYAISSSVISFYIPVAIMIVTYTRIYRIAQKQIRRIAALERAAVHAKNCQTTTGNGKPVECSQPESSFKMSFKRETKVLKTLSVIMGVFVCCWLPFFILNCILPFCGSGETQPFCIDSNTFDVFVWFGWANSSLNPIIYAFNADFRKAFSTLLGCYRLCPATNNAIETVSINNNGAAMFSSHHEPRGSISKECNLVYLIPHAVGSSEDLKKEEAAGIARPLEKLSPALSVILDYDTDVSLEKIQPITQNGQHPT

Beagle dogs = assay: Cardiovascular safety study in conscious telemetered dogs; format: in vivo; settings: single oral doses 0.5, 1.5 and 5 mg/kg
Protocol: There were four animals/compound and each animal within the treatment group was exposed to the three doses (plus a empty capsule control), in a dose ramp-up manner with a minimum of 72 hours between doses.

Long-Evans derived rats [1] = assay: Spontaneous locomotor activity study; format: in vivo, rat; settings: mean ± SEM
Protocol: The effects on locomotor activity were studied in Long-Evans derived rats following protocol outlined in Dews P., Br. J. Pharmacol., 8: 46 (1953).
This effect was still evident 2 hours following drug administration. On the basis of these studies, CNS effects and long duration of action may be anticipated at sufficient clinical doses.

Long-Evans derived rats [2] = assay: Porsolt forced swim test; format: in vivo, rat; settings: for Mean Immobility Time (% of Total) ± SEM, Day 2 Study: 3 administrations
Protocol: Performance in the Porsolt forced swim test was evaluated for sertraline and Compound P following protocols outlined in Porsolt R. D., et al., Arch. Int. Pharmacodyn., 229: 327 ([…]).
The Porsolt forced swim test is a model of “behavioral despair”, which has been used as an in vivo model for assessing potential antidepressant-like activity. Both test articles were dissolved in physiological saline (vehicle) and administered intraperitoneally. […] Long-Evans derived rats were used.

## CN[C@H]1CC[C@@H](c2ccc(Cl)c(Cl)c2)c2ccccc21 [Sertraline, (1S,4S)-cis 4-(3,4-dichlorophenyl)-1,2,3,4-tetrahydro-N-methyl-1-napthalenamine, reference compound]
M5
  pKi: 5.70
hERG channel
  pIC50: 5.96
M2
  pKi: 5.43
5-HT1B
  pKi: 5.07
5-HT2C
  pKi: 5.25
5-HT1A
  pKi: 5.62
D1
  pKi: 5.80
Beagle dogs
  effect on heart rate, blood pressure or ECG parameters (including QTc): no effect
Long-Evans derived rats [1]; 2.5 mg/kg single i.p. dose
  Total Activity Counts, 71–80 Minutes: 34 ± 9
  Total Activity Counts, 91–100 Minutes: 25 ± 9
  Total Activity Counts, 111–120 Minutes: 30 ± 10
  Total Activity Counts, Total 1st Hour: 559 ± 57^2
  Total Activity Counts, Total 2nd Hour: 211 ± 60
Long-Evans derived rats [1]; 5.0 mg/kg single i.p. dose
  Total Activity Counts, 71–80 Minutes: 32 ± 11
  Total Activity Counts, 91–100 Minutes: 14 ± 9
  Total Activity Counts, 111–120 Minutes: 16 ± 11
  Total Activity Counts, Total 1st Hour: 327 ± 55
  Total Activity Counts, Total 2nd Hour: 95 ± 41
Long-Evans derived rats [2]; 2.5 mg/kg i.p.
  Mean Immobility Time (% of Total) ± SEM, Day 2 Study: 86 ± 3 % of Total
Long-Evans derived rats [2]; 2.5 mg/kg i.p., 7 administrations
  Mean Immobility Time (% of Total) ± SEM, Day 4 Study: 78 ± 3 % of Total
Long-Evans derived rats [2]; 5.0 mg/kg i.p.
  Mean Immobility Time (% of Total) ± SEM, Day 2 Study: 77 ± 2 % of Total
Long-Evans derived rats [2]; 5.0 mg/kg i.p., 7 administrations
  Mean Immobility Time (% of Total) ± SEM, Day 4 Study: 64 ± 2 % of Total
Long-Evans derived rats [2]; 10.0 mg/kg i.p.
  Mean Immobility Time (% of Total) ± SEM, Day 2 Study: 72 ± 3 % of Total
Long-Evans derived rats [2]; 10.0 mg/kg i.p., 7 administrations, error is std dev (N = 2)
  Mean Immobility Time (% of Total), Day 4 Study: 70 ± 4 % of Total
